The record followed here is ChEMBL document CHEMBL1201862, “PubChem BioAssay data set” (2004).

A short description of assay [1]: A Cell Based Secondary Assay To Explore Cytotoxicity of Compounds that Sensitize Mycobacterium Tuberculosis to Beta-Lactam Antibiotics. Format: functional.
Assay [2] is described as follows: cells. Format: functional, cell-based.
A short description of assay [3]: cells. Format: functional, cell-based. The source holds these as a separate data set.
A short description of assay [4]: NIH-3T3 fibroblast cytotoxicity, dose response, cytotoxicity control, cell-based, fluorescence, Alamar Blue, secondary assay (AID 2327).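 Note: NIH-3T3 mouse fibroblasts cultured with fluconazole at 8 µg/mL.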 The format is functional.
Assay [5] in a line: C. albicans growth with fluconazole, confirmation, fluorescence, retest (AID 2467). Format: functional, cell-based.
The next assay addresses Steroidogenic factor 1 (Homo sapiens, UniProt Q13285). Briefly: Counterscreen for inverse agonists of the liver receptor homolog-1 (LRH-1; NR5A2): Luminescence-based cell-based high throughput dose response assay to identify inverse agonists of the Steroidogenic Factor 1 Nuclear Receptor (SF1; NR5A1). The format is functional. (A counterscreen serves to expose hits that act by an unwanted route or on another target.)

Assay [6] can be described thus: StAR promoter reporter inhibition counter-screen, dose response, counter-screen for LRH-1 inverse agonist project, cell-based, luminescence, luciferase reporter (AID 651969). Format: functional.
Assay [7] concerns the target Nuclear receptor subfamily 5 group A member 2 (Homo sapiens, UniProt O00482). Format: functional, cell-based.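 Note: HEK293T cells transfected with LRH-1 and a StAR promoter luciferase reporter; potency for inhibitors that lower LRH-1 driven reporter light.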
The target in assay [8] is Glucose-6-phosphate 1-dehydrogenase (Homo sapiens, UniProt P11413). Briefly: human G6PD enzyme inhibitors, dose response, selectivity assay for P. falciparum G6PD inhibitor project, biochemical, fluorescence (AID 504792). Format: functional.
The target of assay [9] is T1, Rac GTPase-activating protein 1 (Homo sapiens, UniProt Q9H0H5).
T1 sequence (Q9H0H5 whole entry): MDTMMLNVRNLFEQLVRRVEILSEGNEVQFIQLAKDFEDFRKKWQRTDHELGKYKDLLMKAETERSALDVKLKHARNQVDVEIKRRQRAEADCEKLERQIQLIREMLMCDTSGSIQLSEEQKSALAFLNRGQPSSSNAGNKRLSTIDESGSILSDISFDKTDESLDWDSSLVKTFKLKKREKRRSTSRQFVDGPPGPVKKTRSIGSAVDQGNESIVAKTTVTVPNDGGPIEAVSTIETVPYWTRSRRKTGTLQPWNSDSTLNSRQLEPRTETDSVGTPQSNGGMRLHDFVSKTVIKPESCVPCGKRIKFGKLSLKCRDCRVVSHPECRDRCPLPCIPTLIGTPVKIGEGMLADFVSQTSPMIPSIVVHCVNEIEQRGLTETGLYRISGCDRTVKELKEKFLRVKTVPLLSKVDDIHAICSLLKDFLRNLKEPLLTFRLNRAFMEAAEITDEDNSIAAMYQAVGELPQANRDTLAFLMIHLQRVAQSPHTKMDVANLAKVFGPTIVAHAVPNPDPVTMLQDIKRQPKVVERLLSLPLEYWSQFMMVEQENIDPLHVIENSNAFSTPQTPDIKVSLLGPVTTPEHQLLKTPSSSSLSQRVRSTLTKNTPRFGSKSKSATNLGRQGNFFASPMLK
Briefly: MgcRacGAP GTPase-activating activity inhibitors, confirmation, biochemical, ADP Hunter fluorescence, primary and confirmatory (AID 624330). The format is functional.

The target in assay [10] is Eukaryotic translation initiation factor 4E (Mus musculus, UniProt P63073). Kind of assay: eIF4E–eIF4G protein interaction inhibitors, dose response, biochemical, TR-FRET (AID 855).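 Note: potency for disrupting eIF4E binding to eIF4GI seen as loss of FRET.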 The format is functional. (In general: In TR-FRET formats the signal depends on donor and acceptor labels being close together.)
In assay [11] the target is DNA dC->dU-editing enzyme APOBEC-3A (Homo sapiens, UniProt P31941). Kind of assay: Dose Response confirmation of small molecule APOBEC3A DNA Deaminase Inhibitors via a fluorescence-based single-stranded DNA deaminase assay. [Related pubchem assays (depositor defined):AID493011, AID493024]. Format: functional.
The target of assay [12] is DNA dC->dU-editing enzyme APOBEC-3G (Homo sapiens, UniProt Q9HC16). The format is functional.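 Note: Dose-response counterscreen measuring inhibition of APOBEC3G DNA deaminase activity, run while confirming APOBEC3A inhibitors.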
For assay [13], the target named is T2, Alkaline phosphatase, tissue-nonspecific isozyme (Homo sapiens, UniProt P05186).
T2 sequence (P05186 whole entry): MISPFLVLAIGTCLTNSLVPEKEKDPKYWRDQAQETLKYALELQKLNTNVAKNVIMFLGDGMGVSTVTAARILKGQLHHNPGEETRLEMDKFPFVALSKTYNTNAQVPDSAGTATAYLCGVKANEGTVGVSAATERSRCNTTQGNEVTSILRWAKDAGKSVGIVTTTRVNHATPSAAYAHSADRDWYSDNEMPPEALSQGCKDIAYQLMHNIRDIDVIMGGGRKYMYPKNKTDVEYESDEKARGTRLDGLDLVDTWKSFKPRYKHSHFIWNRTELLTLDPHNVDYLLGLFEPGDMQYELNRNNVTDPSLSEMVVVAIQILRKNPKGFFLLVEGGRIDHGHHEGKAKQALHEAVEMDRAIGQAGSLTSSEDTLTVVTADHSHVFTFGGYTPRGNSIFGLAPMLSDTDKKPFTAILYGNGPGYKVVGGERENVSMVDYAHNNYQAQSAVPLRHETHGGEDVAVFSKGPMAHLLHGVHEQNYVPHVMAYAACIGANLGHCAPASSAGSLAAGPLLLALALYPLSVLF
Kind of assay: human TNAP enzyme inhibitors, SAR follow-up, biochemical, luminescent, dose response (AID 1056).

Assay [14] deals with T3, DNA repair protein RAD52 homolog (Homo sapiens, UniProt P43351).
T3 sequence (P43351 whole entry): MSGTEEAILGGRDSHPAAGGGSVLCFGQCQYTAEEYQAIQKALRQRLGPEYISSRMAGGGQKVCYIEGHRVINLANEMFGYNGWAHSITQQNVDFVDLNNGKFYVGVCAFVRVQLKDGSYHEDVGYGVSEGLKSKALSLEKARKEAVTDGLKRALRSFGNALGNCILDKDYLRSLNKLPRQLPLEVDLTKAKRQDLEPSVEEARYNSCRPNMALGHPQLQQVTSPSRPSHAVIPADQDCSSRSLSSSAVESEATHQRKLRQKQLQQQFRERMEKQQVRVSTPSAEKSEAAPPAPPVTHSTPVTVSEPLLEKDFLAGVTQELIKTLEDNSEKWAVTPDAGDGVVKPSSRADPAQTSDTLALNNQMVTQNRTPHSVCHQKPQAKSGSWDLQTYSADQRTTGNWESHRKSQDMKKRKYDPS
The format is functional, biochemical.

The target in assay [15] is Glyceraldehyde-3-phosphate dehydrogenase (Homo sapiens, UniProt P04406).
The nature of assay [16]: cytotoxicity toward NIH3T3 fibroblasts, dose response, counter-screen, cell-based, ATP luminescence, mouse fibroblasts (AID 2010).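 Note: cells exposed to compound for about 90 hours before reading.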 The format is functional.
The target in another assay is Genome polyprotein (dengue virus type 2, UniProt P29990). Briefly: Dengue-2 NS5 methyltransferase inhibitors, primary screen, biochemical, confirmation dose response (AID 588689). The format is functional.
Assay [17] is described as follows: inhibitors of intracellular T. cruzi replication, confirmation, NIH3T3 host cells, beta-gal luminescence (AID 2044).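 Note: intracellular parasites grown in NIH/3T3 mouse fibroblasts as host cells; luminescent beta-galactosidase reporter signal from transgenic T. cruzi replicating inside host cells; inhibitors lower the luminescence signal.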 Format: functional, cell-based.
Assay [18] concerns the target T4, Mannose-6-phosphate isomerase (Homo sapiens, UniProt P34949).
T4 sequence (P34949 whole entry): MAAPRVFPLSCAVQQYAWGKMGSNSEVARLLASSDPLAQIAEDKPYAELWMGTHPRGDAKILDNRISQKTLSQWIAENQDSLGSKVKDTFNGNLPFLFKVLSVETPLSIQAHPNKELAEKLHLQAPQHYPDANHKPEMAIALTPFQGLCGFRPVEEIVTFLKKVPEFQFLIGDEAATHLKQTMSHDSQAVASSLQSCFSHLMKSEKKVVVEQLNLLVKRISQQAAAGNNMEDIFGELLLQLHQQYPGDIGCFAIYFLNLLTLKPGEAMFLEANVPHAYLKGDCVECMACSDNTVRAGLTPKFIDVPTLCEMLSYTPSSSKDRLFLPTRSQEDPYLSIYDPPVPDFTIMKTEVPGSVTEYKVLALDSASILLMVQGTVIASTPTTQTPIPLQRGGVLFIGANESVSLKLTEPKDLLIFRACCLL
Briefly: human PMI inhibitors, high substrate, primary screen, biochemical, fluorescence intensity, high mannose 6-phosphate (AID 1220).

The subject of a further assay is HEK293. Briefly: inhibitors of LMP1-driven NF-kB reporter, dose response, cell-based, HEK293, luciferase, cherry-pick (AID 588343). The format is functional. The settings on record: Homo sapiens.
Assay [19] in a line: cells.
Assay [20] is described as follows: HEp-2 cell cytotoxicity, dose response, cytotoxicity control for RSV inhibitor project, HTS (AID 2410). The format is functional. The settings on record: human respiratory syncytial virus.

Activity calls are given as the source filed them.

Glyceraldehyde-3-phosphate dehydrogenase, sequence (P04406 whole entry): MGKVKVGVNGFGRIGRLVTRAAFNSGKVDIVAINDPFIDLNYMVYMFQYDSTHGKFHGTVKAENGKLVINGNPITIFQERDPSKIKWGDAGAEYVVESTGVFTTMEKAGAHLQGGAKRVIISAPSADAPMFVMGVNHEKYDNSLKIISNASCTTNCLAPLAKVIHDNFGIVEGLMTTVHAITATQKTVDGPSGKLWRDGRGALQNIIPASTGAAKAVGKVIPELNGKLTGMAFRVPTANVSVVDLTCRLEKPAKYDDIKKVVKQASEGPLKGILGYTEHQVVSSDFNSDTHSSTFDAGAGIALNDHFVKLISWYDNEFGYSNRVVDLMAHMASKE
Eukaryotic translation initiation factor 4E, sequence (P63073 whole entry): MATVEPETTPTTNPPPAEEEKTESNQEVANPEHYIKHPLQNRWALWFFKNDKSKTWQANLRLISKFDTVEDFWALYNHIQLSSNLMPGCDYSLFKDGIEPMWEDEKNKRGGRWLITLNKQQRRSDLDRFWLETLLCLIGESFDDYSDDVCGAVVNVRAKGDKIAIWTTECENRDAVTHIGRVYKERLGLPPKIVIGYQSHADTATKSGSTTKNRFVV
Glucose-6-phosphate 1-dehydrogenase, sequence (P11413 whole entry): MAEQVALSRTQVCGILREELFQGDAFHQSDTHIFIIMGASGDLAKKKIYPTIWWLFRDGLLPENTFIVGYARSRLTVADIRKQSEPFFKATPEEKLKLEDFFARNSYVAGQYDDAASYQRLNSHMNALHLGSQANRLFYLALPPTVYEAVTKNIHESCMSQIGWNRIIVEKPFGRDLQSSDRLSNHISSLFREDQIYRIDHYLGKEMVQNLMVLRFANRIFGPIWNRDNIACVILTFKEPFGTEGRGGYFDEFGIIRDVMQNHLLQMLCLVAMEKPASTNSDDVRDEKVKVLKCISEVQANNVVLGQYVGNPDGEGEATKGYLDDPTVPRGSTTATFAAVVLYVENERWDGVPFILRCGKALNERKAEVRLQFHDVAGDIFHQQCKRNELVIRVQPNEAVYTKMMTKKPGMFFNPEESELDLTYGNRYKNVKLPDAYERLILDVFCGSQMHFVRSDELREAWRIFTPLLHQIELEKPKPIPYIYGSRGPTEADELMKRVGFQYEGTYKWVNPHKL
Steroidogenic factor 1, sequence (Q13285 whole entry): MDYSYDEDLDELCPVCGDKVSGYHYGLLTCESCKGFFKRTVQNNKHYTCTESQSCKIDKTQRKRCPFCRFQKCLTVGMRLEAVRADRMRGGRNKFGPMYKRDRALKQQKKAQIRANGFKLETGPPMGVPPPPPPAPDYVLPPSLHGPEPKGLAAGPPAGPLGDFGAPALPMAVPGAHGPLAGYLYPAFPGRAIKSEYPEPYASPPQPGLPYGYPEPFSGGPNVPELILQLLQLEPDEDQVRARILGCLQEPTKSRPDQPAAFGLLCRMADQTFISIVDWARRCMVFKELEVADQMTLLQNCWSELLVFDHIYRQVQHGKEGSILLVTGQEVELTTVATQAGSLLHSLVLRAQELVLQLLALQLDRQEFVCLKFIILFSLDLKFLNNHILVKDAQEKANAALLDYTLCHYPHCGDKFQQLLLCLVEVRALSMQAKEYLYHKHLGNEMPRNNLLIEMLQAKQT
Genome polyprotein, sequence (P29990 2492-3391 limits assumed): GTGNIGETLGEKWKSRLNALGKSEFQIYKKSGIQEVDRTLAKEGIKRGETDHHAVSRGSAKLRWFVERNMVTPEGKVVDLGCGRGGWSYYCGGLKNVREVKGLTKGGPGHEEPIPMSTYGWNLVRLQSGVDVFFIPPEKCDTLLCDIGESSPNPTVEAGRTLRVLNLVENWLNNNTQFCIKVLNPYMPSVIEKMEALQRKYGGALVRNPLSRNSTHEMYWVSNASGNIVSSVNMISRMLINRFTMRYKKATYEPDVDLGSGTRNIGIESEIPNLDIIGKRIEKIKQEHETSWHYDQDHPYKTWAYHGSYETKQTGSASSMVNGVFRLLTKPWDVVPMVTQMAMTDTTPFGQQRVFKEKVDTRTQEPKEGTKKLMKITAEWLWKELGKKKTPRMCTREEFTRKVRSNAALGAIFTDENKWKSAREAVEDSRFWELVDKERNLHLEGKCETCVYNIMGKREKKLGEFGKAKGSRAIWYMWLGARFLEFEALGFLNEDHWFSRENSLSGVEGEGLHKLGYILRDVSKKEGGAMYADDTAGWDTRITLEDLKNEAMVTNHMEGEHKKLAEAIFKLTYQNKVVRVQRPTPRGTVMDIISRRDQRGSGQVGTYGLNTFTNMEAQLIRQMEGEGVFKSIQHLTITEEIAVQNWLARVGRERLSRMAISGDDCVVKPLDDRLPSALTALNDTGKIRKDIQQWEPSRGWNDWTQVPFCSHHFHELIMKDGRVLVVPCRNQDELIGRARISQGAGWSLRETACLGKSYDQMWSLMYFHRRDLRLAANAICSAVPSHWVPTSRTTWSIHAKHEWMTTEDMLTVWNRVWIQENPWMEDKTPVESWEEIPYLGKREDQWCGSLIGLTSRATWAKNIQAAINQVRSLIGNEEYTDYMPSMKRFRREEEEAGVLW
Nuclear receptor subfamily 5 group A member 2, sequence (O00482 whole entry): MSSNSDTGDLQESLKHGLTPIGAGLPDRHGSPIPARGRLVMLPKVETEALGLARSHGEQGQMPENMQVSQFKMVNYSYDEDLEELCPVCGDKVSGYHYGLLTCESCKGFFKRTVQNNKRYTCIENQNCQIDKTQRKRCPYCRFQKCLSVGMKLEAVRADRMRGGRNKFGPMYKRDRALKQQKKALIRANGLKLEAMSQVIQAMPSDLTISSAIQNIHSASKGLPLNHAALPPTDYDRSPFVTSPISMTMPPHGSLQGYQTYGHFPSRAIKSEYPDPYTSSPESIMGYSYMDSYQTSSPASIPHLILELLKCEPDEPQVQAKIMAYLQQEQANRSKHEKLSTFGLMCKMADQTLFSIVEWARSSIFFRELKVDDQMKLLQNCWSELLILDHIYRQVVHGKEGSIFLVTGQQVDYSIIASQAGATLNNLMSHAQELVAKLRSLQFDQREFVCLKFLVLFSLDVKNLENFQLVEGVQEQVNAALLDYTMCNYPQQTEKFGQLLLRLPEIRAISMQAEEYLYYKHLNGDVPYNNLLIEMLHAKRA
DNA dC->dU-editing enzyme APOBEC-3G, sequence (Q9HC16 whole entry): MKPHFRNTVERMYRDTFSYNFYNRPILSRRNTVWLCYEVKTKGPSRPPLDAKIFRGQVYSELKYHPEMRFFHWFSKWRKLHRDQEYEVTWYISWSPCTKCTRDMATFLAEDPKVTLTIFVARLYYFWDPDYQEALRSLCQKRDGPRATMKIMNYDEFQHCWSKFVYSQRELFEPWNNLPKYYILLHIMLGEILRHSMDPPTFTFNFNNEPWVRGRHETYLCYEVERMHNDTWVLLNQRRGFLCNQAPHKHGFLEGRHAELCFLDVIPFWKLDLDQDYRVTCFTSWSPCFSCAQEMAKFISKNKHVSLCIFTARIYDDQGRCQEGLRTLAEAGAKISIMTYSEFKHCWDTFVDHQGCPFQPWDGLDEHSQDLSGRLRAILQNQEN
DNA dC->dU-editing enzyme APOBEC-3A, sequence (P31941 whole entry): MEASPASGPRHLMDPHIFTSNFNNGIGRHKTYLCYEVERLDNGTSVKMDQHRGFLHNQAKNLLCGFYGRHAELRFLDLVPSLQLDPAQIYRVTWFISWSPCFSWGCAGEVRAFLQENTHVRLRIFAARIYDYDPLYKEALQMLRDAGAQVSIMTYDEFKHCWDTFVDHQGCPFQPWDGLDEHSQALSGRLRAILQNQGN

For the compound `CCN(CC)S(=O)(=O)c1ccc(N/N=C(\C)c2ccc(OC)cc2O)nc1`, in assay [1], the CC50 was 3.86 µM (active). The EC50 in “cells [2]” is > 350 µM (not active); in “cells [3]” it was 29.1 µM (active); in assay [4], 5.47 µM (active); in assay [5], > 38 µM (not active).

For the compound `NS(=O)(=O)c1ccc(O)c(NC(=O)c2ccc([N+](=O)[O-])o2)c1`, the CC50 in assay [1] was > 40 µM (active). Besides, the figures for the IC50 (on Steroidogenic factor 1; in assay [6]; in [7]) were 1.52 µM (active), 35.9 µM (inactive) and 4.16 µM (active), respectively.

Regarding `c1nc2nc[nH]c(SSc3[nH]cnc4ncnc3-4)c-2n1`, the IC50 in assay [8] is 30.8 µM (inactive); in [9], 75.2 µM (active).

For `COc1ccc(C(=O)OCC[N+]2(C)CCOCC2)cc1`, the IC50 in [10] is 50 µM (inactive); in assay [11], 1.97 µM (active); in assay [12], 3.47 µM (active).

Consider `CCCS(=O)(=O)N1CCN(S(=O)(=O)c2ccccc2)CC1`, for which, in assay [10], the IC50 is > 64 µM (inactive).

On to `CC(C)c1ccc(CN2CCC(C(=O)NCc3cccnc3)CC2)cc1`, for which the IC50 in assay [10] is > 64 µM (inactive).

Consider `COc1c(S(=O)(=O)Nc2cccnc2)ccc(Cl)c1Cl`, for which the IC50 in assay [13] was > 100 µM (inactive).

Consider `O=C(CSc1nc2cc(Cl)ccc2[nH]1)NC1CCCc2ccccc21` (stereo not given), for which, in [8], the IC50 was > 80 µM (inactive).

Take `O=C1Nc2cc(C(=O)NCCCN3CCCC3)ccc2S/C1=C/c1cccc(Cl)c1`: the IC50 in assay [8] is > 80 µM (inactive). Moreover, the AC50 in assay [14] is 7.29 µM (active).

In the case of `CCc1c(C#N)c(S)nc(C)c1C(=O)Nc1ccccc1`, the IC50 in assay [8] was > 80 µM (inactive).

With `COc1ccc(NS(=O)(=O)c2ccc(OC)c(OC)c2)cn1`, the IC50 is > 100 µM (inactive) in assay [13] and > 100 µM (not active) in assay [15].

On to `Fc1cccc(Cl)c1CNc1ccc(N2CCCC2)cc1`, for which the IC50 in assay [8] is > 80 µM (inactive); in assay [10] it was 50 µM (inactive); at Genome polyprotein, 35.6 µM (active); in assay [18], 30.5 µM (active). In addition, the EC50 in assay [16] was > 60 µM (not active); in [17], 2.52 µM (active).

Regarding `Cc1ccccc1C(=O)N1CCN(c2ccc(NC(=O)c3ccco3)cc2Cl)CC1`, in the assay with HEK293, the AC50 is 2.45 µM (active).

Consider `Cc1nnc(N/N=C\c2ccc(-c3cccc(C(=O)O)c3)o2)n1N`, for which, in assay [8], the IC50 was 66.8 µM (inactive).

Turning to `COC(=O)c1ccccc1/N=C/C1=C(O)c2c(C)nn(-c3ccccn3)c2CC1`, in assay [8], the IC50 was > 80 µM (inactive).

In the case of `S=C(N/N=C/c1ccc2ncccc2c1)Nc1cccnc1`, the AC50 in the assay with HEK293 is 1.59 µM (active).

On to `Cc1ccc(C(=O)CSc2ncnc3sc4c(c23)CCCC4)cc1`, for which the IC50 in [10] was > 64 µM (inactive).

On to `O=C(NN1CCOCC1)c1cc(-c2ccc(Br)cc2)nc2ccccc12`, for which the IC50 in assay [10] was > 64 µM (inactive).

As for `Cc1cccc(C)c1-n1c(C)cc(/C=C2\C(=O)NN(c3ccccc3)C2=O)c1C`, the IC50 in the assay “cells [19]” is 7.55 µM (active). The CC50 in [1] is > 40 µM (active); in assay [20], 36.6 µM (active).

As to `CC(C)(C)c1ccc(S(=O)(=O)Nc2cnc3ccccc3c2)cc1`, the IC50 in assay [13] was > 100 µM (inactive); in assay [15], > 100 µM (not active).

With `CC(C)c1ccc(-c2cc(C(=O)O)[nH]n2)cc1`, the IC50 in assay [13] is > 100 µM (inactive); in [15], > 100 µM (not active).

Take `O=C1C2CC=C(Cl)CC2C(=O)N1c1nnc[nH]1` (stereo not given): the IC50 was > 100 µM (inactive) in assay [13] and > 100 µM (not active) in [15].

Consider `Cn1ccnc1Sc1nc(Nc2ccccc2)nc(Nc2ccccc2)n1`, for which the IC50 in [13] is > 100 µM (inactive); in assay [15] it was > 100 µM (not active).

Consider `O=C1c2ccccc2C(=O)C1c1nc2ccccc2[nH]1`, for which the IC50 in assay [13] was > 100 µM (inactive); in assay [15] it was > 100 µM (not active).

Regarding `COc1ccc(OC)c(NS(=O)(=O)c2cnc3ccccc3c2)c1`, the values for the IC50 in assay [13] and in assay [15] were > 10 µM (inactive) and > 10 µM (inconclusive), respectively.

Usually CC50 stands for the concentration that lowers cell viability or growth by half. A word on the EC50: it is the concentration that produces a half-maximal response. What is called IC50 is the concentration that gives 50% inhibition. As usually defined, the AC50 is the concentration giving half of the maximal activity seen.
